In patent publication US11371061B2, “Compositions and methods for improving viral vector efficiency” (GENETHON, priority 2015, dated 2022):
Where no end group is shown, it is not given here.

Experiments:
HCT116 cells = format: cell-based, human

KKALLHAALAHLLALAHHLLALLKKA-NH2 [Vectofusin-1]
aggregation of viral particles (pull-down) (VSV-G-LV particles): aggregation of viral particles, like it is the case for Vectofusin-1

KLALKLALKALKAALKA G TNVFNATFEIWHDGEFGT (KLALKLALKALKAALKAGTNVFNATFEIWHDGEFGT; Synthetic MAP-B1) [MAP-Beclin1]
capacity to promote lentiviral transduction (HCT116 cells): as efficient as TB1

TNVFNATFEIWHDGEFGT (Synthetic modified beclin-1 267-284) [the 267-284 modified beclin1 domain, reference compound]
capacity to promote lentiviral transduction (HCT116 cells): neither Tat nor Bec peptides are capable to promote lentiviral transduction

YGRKKRRQRRR (Synthetic Tat (47-57)) [the Tat transduction domain, reference compound]
capacity to promote lentiviral transduction (HCT116 cells): neither Tat nor Bec peptides are capable to promote lentiviral transduction

YGRKKRRQRRR GG FEIWHDGEFGTINNFRLGRLPSVPV (YGRKKRRQRRRGGFEIWHDGEFGTINNFRLGRLPSVPV; Synthetic TB1 274-298) [Tat-Bec(274-298)]
capacity to promote lentiviral transduction at 2.5 μM (HCT116 cells): most of the derivatives are a lot more efficient than TB1, except for Tat-Bec(274-298)

YGRKKRRQRRR GG INCFTATFEIWVEGPLGV (YGRKKRRQRRRGGINCFTATFEIWVEGPLGV; Synthetic TAT+ GG + Beclin2) [Tat-Bec2WT]
effect on lentiviral transduction at 100 nM (HCT116 cells): three-folds | lentiviral transduction at 100 nM (HCT116 cells): 30% | optimal dose to promote lentiviral transduction (HCT116 cells): 500 nM

YGRKKRRQRRR GG TNVFNATFEIWHDGEFGTINNFRLGRLPSV (YGRKKRRQRRRGGTNVFNATFEIWHDGEFGTINNFRLGRLPSV; Synthetic TB1 267-296) [Tat-Bec(267-296)]
dose capable to promote optimal lentiviral transduction (HCT116 cells): ≥ 1 µM

YGRKKRRQRRR GG TNVFNATFHIWHSGQFGT (YGRKKRRQRRRGGTNVFNATFHIWHSGQFGT; Synthetic TB WT) [Tat-BecWT]
capacity to promote lentiviral transduction at 2.5 μM (HCT116 cells): capable to promote lentiviral transduction as efficiently as TB1 | capacity to promote lentiviral transduction at 5 μM (HCT116 cells): no longer active | effect on lentiviral transduction at 100 nM (HCT116 cells): no effect | optimal dose to promote lentiviral transduction (HCT116 cells): 1000 nM

YGRKKRRQRRR GG TNVFNATFHIWHSGQFGTINNFRLGRLPSV (YGRKKRRQRRRGGTNVFNATFHIWHSGQFGTINNFRLGRLPSV; Synthetic TB WT 267-296) [Tat-Bec(267-296)WT]
capacity to promote lentiviral transduction at 2.5 μM (HCT116 cells): promoting the lentiviral transduction but less efficiently than the Tat-Bec(267-296) peptide

YGRKKRRQRRR GG VENQMRYAQTQLDKLKKTNVFNATFEIWHDGEF (YGRKKRRQRRRGGVENQMRYAQTQLDKLKKTNVFNATFEIWHDGEF; Synthetic TB1 250-282) [Tat-Bec(250-282)]
capacity to promote lentiviral transduction at 2.5 μM (HCT116 cells): most performant peptide at a low dose

YGRKKRRQRRR TNVFNATFEIWHDGEFGTINNFRLGRLPSV (YGRKKRRQRRRTNVFNATFEIWHDGEFGTINNFRLGRLPSV; Synthetic modified Tat-Beclin-1 + beclin-1 285-296) [Tat-Bec(267-296)dGG]
increase of the level of viral transduction (HCT116 cells): nearly five folds
